Data: PubChem BioAssay (NCI)
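Assay format: 96-well plates, 48-hour exposure. Here, GI50 denotes the concentration required for 50% inhibition of growth. TGI denotes the concentration required for complete inhibition of growth.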

What was measured:
Assay in all cases: growth of human tumour cells (NCI), 48 h
[1] = test system: NCI-H522 lung
[2] = test system: SW-620 colon
[3] = test system: NCI-H23 lung
[4] = test system: KM12 colon
[5] = test system: U251 CNS
[6] = test system: MDA-MB-231 breast
[7] = test system: OVCAR-5 ovarian
[8] = test system: SK-OV-3 ovarian
[9] = test system: NCI-H460 lung
[10] = test system: SNB-19 CNS
[11] = test system: SNB-75 CNS
[12] = test system: SF-539 CNS
[13] = test system: HS 578T breast
[14] = test system: DU-145 prostate
[15] = test system: EKVX NSCLC
[16] = test system: OVCAR-8 ovarian
[17] = test system: UACC-257 melanoma
[18] = test system: MOLT-4 leukemia
[19] = test system: CCRF-CEM leukemia
[20] = test system: SF-295 CNS
[21] = test system: RXF 393 renal
[22] = test system: HCC-2998 colon
[23] = test system: A549 NSCLC
[24] = test system: MCF7 breast
[25] = test system: A498 renal
[26] = test system: IGROV1 ovarian
[27] = test system: 786-0 renal
[28] = test system: HT29 colon
[29] = test system: ACHN renal
[30] = test system: UO-31 renal
[31] = test system: M14 melanoma
[32] = test system: CAKI-1 renal
[33] = test system: HCT-15 colon
[34] = test system: LOX IMVI melanoma
[35] = test system: SF-268 CNS
[36] = test system: RPMI-8226 leukemia
[37] = test system: SN12C renal
[38] = test system: COLO 205 colon
[39] = test system: NCI-H226 lung
[40] = test system: OVCAR-4 ovarian
[41] = test system: SR leukemia
[42] = test system: HCT-116 colon
[43] = test system: HL-60(TB) leukemia
[44] = test system: MDA-N
[45] = test system: TK-10 renal
[46] = test system: SK-MEL-28 melanoma
[47] = test system: MDA-MB-435
[48] = test system: NCI/ADR-RES ovarian
[49] = test system: HOP-92 NSCLC
[50] = test system: MALME-3M melanoma
[51] = test system: K-562 leukemia
[52] = test system: SK-MEL-5 melanoma
[53] = test system: T-47D breast
[54] = test system: UACC-62 melanoma
[55] = test system: OVCAR-3 ovarian
[56] = test system: SK-MEL-2 melanoma
[57] = test system: PC-3 prostate
[58] = test system: HOP-62 NSCLC
[59] = test system: BT-549 breast

Work on `Nc1c(N2CCCCC2)c(=O)nc2[nH]/c(=C\c3ccccc3)c(=O)n12` yielded a TGI [1] of over 100000 nM, a TGI [2] of over 100000 nM and a TGI [3] of over 100000 nM. It also gave a TGI [4] of over 100000 nM, a TGI [5] of over 100000 nM and a TGI [6] of over 100000 nM. For the same compound, the TGI [7] was over 100000 nM, the TGI [8] was over 100000 nM and the TGI [9] was over 100000 nM. It also gave a TGI [10] of over 100000 nM, a TGI [11] of over 100000 nM and a TGI [12] of over 100000 nM. The TGI [13] was over 100000 nM, the TGI [14] was over 100000 nM and the TGI [15] was over 100000 nM. The TGI [16] was over 100000 nM, the TGI [17] was over 100000 nM and the TGI [18] was over 100000 nM. For the same compound, the TGI [19] was over 100000 nM, the TGI [20] was over 100000 nM and the TGI [21] was over 100000 nM. The TGI [22] was over 100000 nM, the TGI [23] was over 100000 nM and the TGI [24] was over 100000 nM. It also gave a TGI [25] of over 100000 nM, a TGI [26] of over 100000 nM and a TGI [27] of over 100000 nM. It also gave a TGI [28] of over 100000 nM, a TGI [29] of over 100000 nM and a TGI [30] of over 100000 nM. For the same compound, the TGI [31] was over 100000 nM, the TGI [32] was over 100000 nM and the TGI [33] was over 100000 nM. The TGI [34] was over 100000 nM, the TGI [35] was over 100000 nM and the TGI [36] was over 100000 nM. For the same compound, the TGI [37] was over 100000 nM, the TGI [38] was over 100000 nM and the TGI [39] was over 100000 nM. It also gave a TGI [40] of over 100000 nM, a TGI [41] of over 100000 nM and a TGI [42] of over 100000 nM. For the same compound, the TGI [43] was over 100000 nM, the TGI [44] was over 100000 nM and the TGI [45] was over 100000 nM. The TGI [46] was over 100000 nM, the TGI [47] was over 100000 nM and the TGI [48] was over 100000 nM. The TGI [49] was over 100000 nM, the TGI [50] was over 100000 nM and the TGI [51] was over 100000 nM. For the same compound, the TGI [52] was over 100000 nM and the TGI [53] was over 100000 nM.

With `O=C1/C(=C/c2cccs2)NC(=S)N1CN1CCCC(CO)C1` (centres undefined) the TGI [2] was over 100000 nM, the TGI [3] was over 100000 nM and the TGI [4] was over 100000 nM. The TGI [5] was over 100000 nM, the TGI [54] was over 100000 nM and the TGI [6] was over 100000 nM. It also gave a TGI [7] of over 100000 nM, a TGI [8] of over 100000 nM and a TGI [10] of over 100000 nM. For the same compound, the TGI [11] was over 100000 nM, the TGI [13] was over 100000 nM and the TGI [14] was over 100000 nM. The TGI [15] was over 100000 nM, the TGI [16] was over 100000 nM and the TGI [17] was over 100000 nM. The TGI [18] was over 100000 nM, the TGI [19] was over 100000 nM and the TGI [20] was over 100000 nM. It also gave a TGI [23] of over 100000 nM, a TGI [24] of over 100000 nM and a TGI [25] of over 100000 nM. It also gave a TGI [26] of over 100000 nM, a TGI [27] of over 100000 nM and a TGI [28] of over 100000 nM. For the same compound, the TGI [29] was over 100000 nM, the TGI [30] was over 100000 nM and the TGI [55] was over 100000 nM. It also gave a TGI [31] of over 100000 nM, a TGI [33] of over 100000 nM and a TGI [34] of over 100000 nM. For the same compound, the TGI [35] was over 100000 nM, the TGI [56] was over 100000 nM and the TGI [36] was over 100000 nM. The TGI [37] was over 100000 nM, the TGI [38] was over 100000 nM and the TGI [39] was over 100000 nM. It also gave a TGI [40] of over 100000 nM, a TGI [41] of over 100000 nM and a TGI [42] of over 100000 nM. The TGI [44] was over 100000 nM, the TGI [45] was over 100000 nM and the TGI [46] was over 100000 nM. It also gave a TGI [47] of over 100000 nM, a TGI [57] of over 100000 nM and a TGI [48] of over 100000 nM. The TGI [49] was over 100000 nM, the TGI [50] was over 100000 nM and the TGI [58] was over 100000 nM. The TGI [51] was over 100000 nM and the TGI [52] was over 100000 nM.

`CN1CCN(Cc2ccc(NC(=O)c3cncc(C#Cc4cnn5ccccc45)c3)cc2C(F)(F)F)CC1` was tested, and the GI50 [1] was 838 nM, the TGI [1] was 2270 nM and the GI50 [2] was 382 nM. The TGI [2] was 3220 nM, the GI50 [3] was 655 nM and the TGI [3] was 1970 nM. It also gave a GI50 [4] of 16 nM, a TGI [4] of 1140 nM and a GI50 [5] of 1060 nM. The TGI [5] was 4150 nM, the GI50 [54] was 996 nM and the TGI [54] was 2380 nM. It also gave a GI50 [6] of 608 nM, a TGI [6] of 3050 nM and a GI50 [7] of 1120 nM. It also gave a TGI [7] of 5090 nM, a GI50 [8] of 1510 nM and a TGI [8] of 4610 nM. The GI50 [9] was 402 nM, the TGI [9] was 1980 nM and the GI50 [10] was 1580 nM. The TGI [10] was 5030 nM, the GI50 [11] was 893 nM and the TGI [11] was 1810 nM. For the same compound, the GI50 [12] was 518 nM, the TGI [12] was 1250 nM and the GI50 [13] was 735 nM. For the same compound, the TGI [13] was 2910 nM, the GI50 [14] was 1170 nM and the TGI [14] was 3950 nM. The GI50 [15] was 786 nM, the TGI [15] was 2000 nM and the GI50 [16] was 1220 nM. For the same compound, the TGI [16] was 4680 nM, the GI50 [17] was 1150 nM and the TGI [17] was 3000 nM. The GI50 [18] was 358 nM, the TGI [18] was 3560 nM and the GI50 [19] was 202 nM. It also gave a TGI [19] of 1670 nM, a GI50 [20] of 916 nM and a TGI [20] of 3350 nM. For the same compound, the GI50 [21] was 693 nM, the TGI [21] was 1660 nM and the GI50 [22] was 902 nM. The TGI [22] was 3070 nM, the GI50 [23] was 723 nM and the TGI [23] was 3560 nM. For the same compound, the GI50 [24] was 408 nM, the TGI [24] was 2290 nM and the GI50 [25] was 821 nM. The TGI [25] was 1890 nM, the GI50 [26] was 858 nM and the TGI [26] was 3610 nM. For the same compound, the GI50 [27] was 1100 nM, the TGI [27] was 2260 nM and the GI50 [28] was 811 nM. It also gave a TGI [28] of 4890 nM, a GI50 [29] of 873 nM and a TGI [29] of 3720 nM. It also gave a GI50 [30] of 1170 nM, a TGI [30] of 3390 nM and a GI50 [55] of 1430 nM. For the same compound, the TGI [55] was 3620 nM, the GI50 [31] was 576 nM and the TGI [31] was 1390 nM. It also gave a GI50 [32] of 940 nM, a TGI [32] of 4560 nM and a GI50 [59] of 1470 nM. The TGI [59] was 4110 nM, the GI50 [33] was 818 nM and the TGI [33] was 3660 nM. For the same compound, the GI50 [34] was 588 nM, the TGI [34] was 1370 nM and the GI50 [35] was 1050 nM. For the same compound, the TGI [35] was 2540 nM, the GI50 [56] was 891 nM and the TGI [56] was 2020 nM. The GI50 [36] was 570 nM, the TGI [36] was 1820 nM and the GI50 [37] was 825 nM. The TGI [37] was 3850 nM, the GI50 [38] was 291 nM and the TGI [38] was 1050 nM. The GI50 [39] was 592 nM, the TGI [39] was 3430 nM and the GI50 [40] was 445 nM. It also gave a TGI [40] of 2950 nM, a GI50 [41] of 322 nM and a TGI [41] of 2820 nM. For the same compound, the GI50 [42] was 294 nM, the TGI [42] was 1470 nM and the GI50 [43] was 250 nM. For the same compound, the TGI [43] was 1150 nM, the GI50 [45] was 1610 nM and the TGI [45] was 4130 nM. The GI50 [46] was 1220 nM, the TGI [46] was 3530 nM and the GI50 [47] was 729 nM. For the same compound, the TGI [47] was 1700 nM, the GI50 [57] was 1010 nM and the TGI [57] was 4190 nM. For the same compound, the GI50 [48] was 1400 nM, the TGI [48] was 5510 nM and the GI50 [49] was 633 nM. The TGI [49] was 2980 nM, the GI50 [50] was 604 nM and the TGI [50] was 1450 nM. For the same compound, the GI50 [58] was 939 nM, the TGI [58] was 2930 nM and the GI50 [51] was 5 nM. It also gave a TGI [51] of 3160 nM, a GI50 [52] of 902 nM and a TGI [52] of 1720 nM. It also gave a GI50 [53] of 1400 nM and a TGI [53] of 5780 nM.
